The record followed here is patent US12643880B2, “Heterobifunctional molecules as TEAD inhibitors” (Genentech, Inc., priority 2020, dated 2026).

In general, IC50 refers to the concentration needed to halve the response being measured. A high value points to weaker potency.

Holding throughout (format): binding
Conditions in all cases: His-tagged TEAD protein, biotinylated lipid pocket probe

One experiment addresses TEAD4 (Homo sapiens, UniProt Q15561). Description: TEAD lipid pocket TR-FRET (Lipid HTRF) competition assay, TEAD4. The procedure: (§1) His-tagged TEAD proteins are pre-incubated with TEAD project compounds for 30 minutes at room temperature. Biotinylated lipid pocket probes are then added to the TEAD/Compound mixture and incubated for 60 minutes at room temperature. The lipid pocket probe competes with the test compound for the TEAD lipid pocket until equilibrium is reached. After 60 minutes, Europium labelled anti-His (Perkin Elmer #ADO 110) and XL665 labelled streptavidin (CIS Bio 610SAXAC) are added to the TEAD/test compound/lipid pocket mixture and incubated for 30 minutes. TR-FRET values are then measured using an EnVision multi-label plate reader (Perkin Elmer Cat #2104-1A.) If the lipid pocket probe binds to TEAD as expected, a TR-FRET signal results from the proximity of Tani-His Eu and XL665. If a TEAD lipid pocket binder such as binds and displaces the lipid pocket probe, the disruption of the TEAD:probe interaction results in a decrease in TR-FRET signal. The potency of compounds as TEAD lipid pocket binders is determined by IC50 value generated using a non-linear 4 parameter curve fit. This assay format enables more sensitive determinations of lipid pocket affinity than the aforementioned TEAD lipid pocket FP assay due to the decreased concentration of TEAD protein required for the TR-FRET assay format.
For orientation: Time-resolved FRET reads energy transfer from a long-lived donor to a nearby acceptor.

Another experiment deals with TEAD2 (Homo sapiens, UniProt Q15562). The experiment can be described thus: TEAD lipid pocket TR-FRET (Lipid HTRF) competition assay, TEAD2. As for the experimental part: as §1
The next experiment has as its target TEAD3 (Homo sapiens, UniProt Q99594). Description: TEAD lipid pocket TR-FRET (Lipid HTRF) competition assay, TEAD3. The procedure:
as §1

The target of the next experiment is TEAD1 (Homo sapiens, UniProt P28347). The experiment can be described thus: TEAD lipid pocket TR-FRET (Lipid HTRF) competition assay, TEAD1. As for the experimental part: as §1
Chain of TEAD1 (P28347 whole entry, species assumed): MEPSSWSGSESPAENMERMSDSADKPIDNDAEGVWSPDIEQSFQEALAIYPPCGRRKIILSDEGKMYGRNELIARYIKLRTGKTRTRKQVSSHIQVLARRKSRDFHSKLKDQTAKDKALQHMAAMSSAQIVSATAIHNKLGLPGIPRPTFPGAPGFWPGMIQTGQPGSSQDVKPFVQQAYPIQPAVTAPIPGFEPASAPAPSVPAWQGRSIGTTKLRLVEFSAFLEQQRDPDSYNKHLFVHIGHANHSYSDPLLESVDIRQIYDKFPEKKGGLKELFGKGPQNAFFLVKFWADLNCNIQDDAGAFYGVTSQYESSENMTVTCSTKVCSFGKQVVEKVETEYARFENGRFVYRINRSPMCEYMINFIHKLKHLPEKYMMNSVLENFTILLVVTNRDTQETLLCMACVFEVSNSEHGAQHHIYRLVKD

Chain of TEAD4 (Q15561 whole entry, species assumed): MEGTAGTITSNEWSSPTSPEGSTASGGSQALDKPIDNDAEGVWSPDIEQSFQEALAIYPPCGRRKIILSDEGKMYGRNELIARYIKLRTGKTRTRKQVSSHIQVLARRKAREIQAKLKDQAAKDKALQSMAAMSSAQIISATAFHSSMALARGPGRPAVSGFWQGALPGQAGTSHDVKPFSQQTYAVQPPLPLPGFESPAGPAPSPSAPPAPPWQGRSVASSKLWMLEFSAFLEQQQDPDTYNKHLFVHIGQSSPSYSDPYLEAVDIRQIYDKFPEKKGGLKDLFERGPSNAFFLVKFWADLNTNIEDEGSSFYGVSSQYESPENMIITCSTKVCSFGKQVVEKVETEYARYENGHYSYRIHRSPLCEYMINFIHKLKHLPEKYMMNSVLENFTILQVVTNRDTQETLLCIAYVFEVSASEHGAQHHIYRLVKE
Chain of TEAD2 (Q15562 whole entry, species assumed): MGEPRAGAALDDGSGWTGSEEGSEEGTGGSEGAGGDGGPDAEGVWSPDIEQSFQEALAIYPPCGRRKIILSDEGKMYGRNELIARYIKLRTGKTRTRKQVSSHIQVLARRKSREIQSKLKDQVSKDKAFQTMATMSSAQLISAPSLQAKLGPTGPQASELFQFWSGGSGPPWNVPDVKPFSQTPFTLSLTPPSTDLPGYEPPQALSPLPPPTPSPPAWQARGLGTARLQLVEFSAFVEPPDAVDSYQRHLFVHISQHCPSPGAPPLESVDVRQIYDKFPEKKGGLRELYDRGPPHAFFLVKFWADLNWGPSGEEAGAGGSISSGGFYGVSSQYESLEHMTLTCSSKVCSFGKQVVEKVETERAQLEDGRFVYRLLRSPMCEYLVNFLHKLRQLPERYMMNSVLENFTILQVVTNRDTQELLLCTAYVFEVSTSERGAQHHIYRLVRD
Chain of TEAD3 (Q99594 whole entry, species assumed): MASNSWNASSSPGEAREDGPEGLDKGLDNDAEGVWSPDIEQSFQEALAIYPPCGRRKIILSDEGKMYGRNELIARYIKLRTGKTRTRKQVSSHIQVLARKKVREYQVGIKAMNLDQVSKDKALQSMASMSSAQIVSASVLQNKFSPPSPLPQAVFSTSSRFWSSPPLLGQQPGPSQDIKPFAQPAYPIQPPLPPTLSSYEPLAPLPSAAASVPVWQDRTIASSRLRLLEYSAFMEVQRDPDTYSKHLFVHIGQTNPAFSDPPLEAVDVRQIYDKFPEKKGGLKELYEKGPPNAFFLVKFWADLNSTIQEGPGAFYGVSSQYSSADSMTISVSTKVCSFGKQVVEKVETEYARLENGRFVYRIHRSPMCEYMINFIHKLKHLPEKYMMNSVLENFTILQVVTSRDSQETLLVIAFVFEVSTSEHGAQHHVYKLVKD

For the molecule `COc1cnc(C(=O)NCc2cccc(CC(=O)NCCCCCCC(=O)N[C@H](C(=O)N3C[C@H](O)C[C@H]3C(=O)NCc3ccc(-c4scnc4C)cc3)C(C)(C)C)c2)cc1/C=C/[C@H]1CC[C@H](C(F)(F)F)CC1` [Compound 12, N-(3-(2-((7-(((S)-1-((2S,4R)-4-Hydroxy-2-((4-(4-methylthiazol-5-yl)benzyl)carbamoyl)pyrrolidin-1-yl)-3,3-dimethyl-1-oxobutan-2-yl)amino)-7-oxoheptyl)amino)-2-oxoethyl)benzyl)-5-methoxy-4-((E)-2-(trans-4-(trifluoromethyl)cyclohexyl)vinyl)picolinamide], the concentration for half-maximal inhibition (IC50) on TEAD4 was determined as 280 nM; on TEAD2, 690 nM; on TEAD3 it was 5900 nM; on TEAD1, 1320 nM.

`COc1cnc(C(=O)NCc2cccc(CC(=O)NCCCCCCCCC(=O)N[C@H](C(=O)N3C[C@H](O)C[C@H]3C(=O)NCc3ccc(-c4scnc4C)cc3)C(C)(C)C)c2)cc1/C=C/[C@H]1CC[C@H](C(F)(F)F)CC1` [Compound 13, N-(3-(2-((9-(((S)-1-((2S,4R)-4-Hydroxy-2-((4-(4-methylthiazol-5-yl)benzyl)carbamoyl)pyrrolidin-1-yl)-3,3-dimethyl-1-oxobutan-2-yl)amino)-9-oxononyl)amino)-2-oxoethyl)benzyl)-5-methoxy-4-((E)-2-(trans-4-(trifluoromethyl)cyclohexyl)vinyl)picolinamide]: the concentration for half-maximal inhibition (IC50) was 220 nM at TEAD4, 460 nM on TEAD2, 4030 nM on TEAD3 and 980 nM at TEAD1.

On to `COc1cnc(C(=O)NCc2cccc(CC(=O)NCCOCCOCC(=O)N[C@H](C(=O)N3C[C@H](O)C[C@H]3C(=O)NCc3ccc(-c4scnc4C)cc3)C(C)(C)C)c2)cc1/C=C/[C@H]1CC[C@H](C(F)(F)F)CC1` [Compound 14, N-(3-((S)-13-((2S,4R)-4-Hydroxy-2-((4-(4-methylthiazol-5-yl)benzyl)carbamoyl)pyrrolidine-1-carbonyl)-14,14-dimethyl-2,11-dioxo-6,9-dioxa-3,12-diazapentadecyl)benzyl)-5-methoxy-4-((E)-2-(trans-4-(trifluoromethyl)cyclohexyl)vinyl)picolinamide], for which the IC50 at TEAD4 turned out to be 170 nM; on TEAD2 it was 410 nM; on TEAD3, 3830 nM; on TEAD1 it was 720 nM.

In the case of `COc1cnc(C(=O)NCc2cccc(CC(=O)NCCOCCOCCOCC(=O)N[C@H](C(=O)N3C[C@H](O)C[C@H]3C(=O)NCc3ccc(-c4scnc4C)cc3)C(C)(C)C)c2)cc1/C=C/[C@H]1CC[C@H](C(F)(F)F)CC1` [Compound 15, N-(3-((S)-16-((2S,4R)-4-Hydroxy-2-((4-(4-methylthiazol-5-yl)benzyl)carbamoyl)pyrrolidine-1-carbonyl)-17,17-dimethyl-2,14-dioxo-6,9,12-trioxa-3,15-diazaoctadecyl)benzyl)-5-methoxy-4-((E)-2-(trans-4-(trifluoromethyl)cyclohexyl)vinyl)picolinamide], the IC50 at TEAD4 stood at 170 nM; on TEAD2, 380 nM; at TEAD3, 3630 nM; at TEAD1, 600 nM.

For the molecule `COc1cnc(C(=O)NCc2cccc(CC(=O)NCCOCCOCCOCCOCC(=O)N[C@H](C(=O)N3C[C@H](O)C[C@H]3C(=O)NCc3ccc(-c4scnc4C)cc3)C(C)(C)C)c2)cc1/C=C/[C@H]1CC[C@H](C(F)(F)F)CC1` [Compound 16, N-(3-((S)-19-((2S,4R)-4-Hydroxy-2-((4-(4-methylthiazol-5-yl)benzyl)carbamoyl)pyrrolidine-1-carbonyl)-20,20-dimethyl-2,17-dioxo-6,9,12,15-tetraoxa-3,18-diazahenicosyl)benzyl)-5-methoxy-4-((E)-2-(trans-4-(trifluoromethyl)cyclohexyl)vinyl)picolinamide], the half-inhibitory concentration (IC50) amounted to 60 nM on TEAD4, 160 nM at TEAD2, 2570 nM on TEAD3 and 350 nM at TEAD1.
